Test results as given in patent US7868135B2, “Compositions of lipopeptide antibiotic derivatives and methods of use thereof” (priority 2003, dated 2011).
Starred links: 1 amine or outer side, 2 acyl side, 3 side chain; linkers in the order of their positions; H or OH if unused. Positions of bridges follow the written chain, without caps; N, C: chain ends. Non-standard residues stand in square brackets, D forms with d. Residues, ends and D or L forms follow the SMILES beside them. ξ: configuration not given here. *: point of attachment. ξAbu(βξ-NH2) = CC(N[*:3])C(N[*:1])C(=O)[*:2]; ξAsp(βξ-Me) = CC(C(=O)O)C(N)C(=O)O; X2 = O=C(CCc1ccc(N[*:1])cc1)[*:2]; X1 = O=C(Cc1ccc(N[*:1])cc1)[*:2]; ξAbu(3ξ-NH2) = CC(N)C(N)C(=O)O; Lauroyl = CCCCCCCCCCCC(=O)*; Pip = O=C(O)[CH]1CCCCN1

Columns and labels:
[1] = system: S. aureus Smith (SAU0017, ATCC 19636); assay: Intraperitoneal murine model of protection against infection (ED50, Table 21); format: in vivo, Staphylococcus aureus; settings: Swiss CD1 mice infected i.p., compound i.v.
Text: (§1) A variety of in vivo models may be used to assess the antimicrobial properties of lipopeptide derivative compounds of this disclosure. For example, antimicrobial compounds of the instant disclosure may be tested for efficacy by measuring a compound's ability to protect a mouse against a microbial infection, such as an infection or disease caused by or related to Gram-positive bacteria, including Staphylococcus aureus, Streptococcus pneumoniae, and Enterococcus faecalis. […] A certain period after infection, mice are then individually treated, for example intravenously (i.v.), with a lipopeptide derivative of this disclosure.
(§2) Antimicrobial lipopeptide derivatives of the instant invention were tested for antimicrobial activity against Gram-positive bacteria in an intraperitoneal (i.p.) murine model (i.e., bacteria were injected i.p. and lipopeptide compounds were administered intravenously (i.v.)). Mice were infected with Staphylococcus aureus, Streptococcus pneumoniae, or Enterococcus faecalis, which were prepared as follows: S. aureus Smith (SAU0017, ATCC 19636) were grown in culture overnight on trypticase soy broth, harvested and then resuspended in fresh media containing 5% mucin (Sigma Chemical Co.); S. pneumoniae (SPN 0032, ATCC 10813) were grown overnight on blood agar plates and re-suspended in 0.9% sterile saline; and E. faecalis EFS0040 (clinical isolate) were grown overnight in culture on blood heart infusion broth, washed and resuspended in 0.9% saline and mixed with equal volume of sterile fecal rat extract. Swiss CD1 mice were each infected i.p. with bacteria at the following doses: S. aureus at 10^6 CFU/mouse; S. pneumoniae at 10^2 CFU/mouse; or E. faecalis at 10^7.5 CFU/mouse. […] The ED50 for each compound was calculated using the method of Reed and Meunch (Am. J. Hyg. 27: 493, 1938).

[2] = Acute toxicity, maximum tolerated dose (MTD); settings: Swiss CD1, mouse, in vivo, iv
Protocol: Another measure of toxicity is the maximum tolerated dose (MTD), which is determined as a dose level that is not accompanied by mortality or life-threatening toxicity. The dose ratio between toxic and therapeutic effect is the therapeutic index. […] The data obtained from these cell culture assays and animal studies can be used in formulating a dosage range that is not toxic for use in human subjects. […] The dosage may vary within this range depending upon the dosage form employed and the route of administration utilized. The exact formulation, route of administration and dosage can be chosen by the individual physician in view of the patient's condition or need thereof (see, e.g., Fingl et al., 1975, In: The Pharmacological Basis of Therapeutics, Chapter 1).
For example, to examine acute toxicity, lipopeptide antibiotics of the invention can be tested in an animal model, such as Swiss CD1 mice, to determine the MTD. In certain embodiments, the animals used to test toxicity of a particular compound can be approximately 5-6 weeks old at the start of the experiment and weigh 22-26 g. The lipopeptides may be administered intravenously (i.v.) into, for example, the caudal tail vein at dose levels that range from about 50 to about 500 mg/kg, or from about 75 to about 250 mg/kg, or from about 100 to about 200 mg/kg, or at a dose range at or below 100 mg/kg. The animals are generally observed immediately after administration, 1-2 hours post administration, 5-8 hours post administration, and once daily thereafter. Observations include both the activity level of the mouse as well as any physical side effects from the administered dose. The animal weight is recorded on day 0 (immediately before dosing) and on day 7.

[3] = In vivo half-life after single i.v. administration, mice; settings: female, Swiss CD1, mouse, plasma, iv, 10 mg/kg
Protocol: (§3) Yet other exemplary in vivo models can be used to characterize the pharmacokinetics and pharmacodynamic parameters of antimicrobial compounds of this disclosure. Some parameters that can be measured include an in vivo half-life of a compound, elimination rate and clearance, volume of distribution, and bioavailability. For example, briefly, compounds can be administered as a single i.v. or oral (p.o.) dose in mice or rats. At various time points (ranging from 1 minute to 72 hours), blood from treated animals is collected and the concentration of lipopeptide derivative in the ex vivo plasma can be quantified by, for example, liquid chromatography with mass spectrometric detection (LC/MS). After quantification, pharmacokinetics parameters can be calculated using methods known in the art, such as a one compartment model with mono-exponential decay and linear regression analysis (see, e.g., Fantin et al., Antimicrob. Agents Chemotherap. 35: 1413. 1991).
(§4) A pharmacokinetic parameter that can be measured, and which aids in determining efficacy, after a single i.v. administration of an antimicrobial lipopeptide derivative of the instant disclosure is the systemic half-life of the compound. Briefly, test compounds were dissolved in a 5% mannitol solution (pH was then adjusted) to a concentration of 1 mg/mL (w/v). A single intravenous injection in the lateral caudal vein of Swiss CD1 mice (5 to 6 weeks old, female) or Sprague Dawley rats (male) was used to administer the lipopeptide derivative at a final dose of 10 mg/kg. At various time points (ranging from about 4 minutes to about 24 hours for mice, and 48 or 72 hours for rats) mice were sacrificed and blood was harvested. The concentration of lipopeptide derivative in ex vivo plasma was quantified using liquid chromatography (LC) with mass spectrometric detection (MS).

[4] = system: S. pneumoniae (SPN 0032, ATCC 10813); assay: Intraperitoneal murine model of protection against infection (ED50, Table 21); format: in vivo, Streptococcus pneumoniae; settings: Swiss CD1 mice infected i.p., compound i.v.
Text: as §1, §2

[5] = system: Staphylococcus aureus (MSSA); settings: 24 h
How it was run: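 Broth microdilution MIC per NCCLS M7-A6 with doubling serial dilutions, in cation-adjusted Mueller-Hinton broth supplemented with 0.625 mM calcium.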

[6] = system: E. faecalis EFS0040 (clinical isolate); assay: Intraperitoneal murine model of protection against infection (ED50, Table 21); format: in vivo, Enterococcus faecalis; settings: Swiss CD1 mice infected i.p., compound i.v.
Text: as §1, §2

[7] = in vivo; settings: male, Sprague Dawley, rat, plasma, iv, 10 mg/kg
Protocol: as §3, §4

[8] = system: Staphylococcus aureus; format: cell-based
Protocol: An exemplary pharmacokinetic parameter to aid in characterizing the properties of lipopeptide derivative compounds of the disclosure is post-antibiotic effect (PAE) of a lipopeptide derivative. For example, a bacterial culture with an initial count of 10^6 to 10^7 colony forming units per ml (CFU/ml) is treated with a certain concentration of lipopetide derivative for a certain time and a parallel (control) culture is left untreated. After treatment, the lipopetide derivative is removed from the culture (e.g., by dilution 1:1000 in fresh, lipopetide derivative-free medium), and the untreated culture is manipulated in the same way. Then the cultures are further incubated and monitored for bacterial growth over time. […] By way of background and not wishing to be bound by theory, a lipopeptide derivative having a measurable PAE activity will likely provide additional time for the host immune system to remove bacteria that might have survived antibiotic treatment and reproduced after the antibiotic is degraded, removed or filtered from the circulatory system. A longer PAE can influence the clinical outcome of antimicrobial therapy (i.e., a lower dose of a lipopetide derivative may be used to treat an infection or the frequency of a dosing regimen can be reduced).
After removal of the lipopeptide compounds, bacterial titre was determined each hour to monitor bacterial re-growth. The PAE duration is defined as the difference in time required for antimicrobial exposed bacterial cells versus unexposed bacterial cells to achieve an increase of 1 log10 unit in CFU/mL.

[9] = system: Streptococcus pneumoniae (SPN0002); assay: Lung infection model in neutropenic mice; format: in vivo
Protocol: Antimicrobial lipopeptide derivatives of the instant invention were tested for antimicrobial activity against Gram-positive bacteria in an intranasal (i.n.), immunocomprimised murine lung infection model (i.e., bacteria were innoculated i.n. and lipopeptide compounds were administered i.v.). Streptococcus pneumoniae (SPN0002) were grown on 5% sheep blood agar plates for 24 h at 37° C., harvested and then resuspended in 0.9% saline. A group of three to four Swiss CD1 mice were rendered neutropenic by administration of cyclophosphamide (Sigma Chemical Co.; 150 mg/kg, i.p.) on day −4 and −1 before infection. At time −18 to −24 hours, each mouse was infected i.n. dropwise via the nares with 50 μl of the prepared bacterial inoculum (i.e., a dose of about 5×10^6 CFU/mouse). At 18 to 24 hours post-infection, the groups of mice received i.v. (1) a lipopeptide derivative formulated in a 5% D-mannitol solution at a dose of about 1 mg/kg, 3 mg/kg, 10 mg/kg, or 30 mg/kg; (2) the 5% mannitol vehicle alone at a dose volume of 10 mL/kg; or (3) a known antibiotic, such as ampicillin, at a similar dose as the lipopeptide compounds. At 18 to 24 hours post-antibiotic treatment, mice were sacrificed and lungs harvested. Lungs were sampled by spreading homogenates on blood agar plates and incubating for 24 h at 37° C., and then counting the number of CFU. The EKill (killing effect; i.e., log10 CFU/lung reduction as compared to CFU count at intial treatment time) and the EMax (maximum reduction effect; i.e., log10 CFU/lung reduction as compared to CFU count of control at 24 hours) for each compound was calculated.

Compound	ED50 in Mice, S. aureus (SAU0017) [1] [mg/kg]	MTD at 7 days [2] [mg/kg]	half-life [3] [h]	ED50 in Mice, S. pneumoniae (SPN0032) [4] [mg/kg]	MIC [5] [µg/mL]	further results
CCCCCCCCCCCCCCC(=O)NC(CC(=O)O)C(=O)NC1C(=O)N2CCCCC2C(=O)NC(C(C)C(=O)O)C(=O)NC(CC(=O)O)C(=O)NCC(=O)NC(CC(=O)O)C(=O)NCC(=O)NC(C(C)NC(=O)CN)C(=O)NC(C(C)C)C(=O)N2CCCC2C(=O)NC1C (centres unmarked) [Compound 3, C15-Amphomycin-9-Gly]	4.9	50 to 200	6.65	1.3	–	–
CC(=O)Nc1ccc(C(=O)NC(CC(=O)O)C(=O)NC2C(=O)N3CCCCC3C(=O)NC(C(C)C(=O)O)C(=O)NC(CC(=O)O)C(=O)NCC(=O)NC(CC(=O)O)C(=O)NCC(=O)NC(C(C)N)C(=O)NC(C(C)C)C(=O)N3CCCC3C(=O)NC2C)cc1 (centres unmarked) [Compound 85, C2-PABA-Amphomycin]	6.5	50 to 200	5.17	–	2 to 4	ED50 in Mice, E. faecalis (EFS0040) [6]: 5.7 mg/kg
CCCCCCCCCCCC(=O)Nc1ccc(CCC(=O)NC(CC(=O)O)C(=O)NC2C(=O)N3CCCCC3C(=O)NC(C(C)C(=O)O)C(=O)NC(CC(=O)O)C(=O)NCC(=O)NC(CC(=O)O)C(=O)NCC(=O)NC(C(C)N)C(=O)NC(C(C)C)C(=O)N3CCCC3C(=O)NC2C)cc1 (stereo not drawn) [Compound 108, C12-(p-Aminophenylpropanoyl)-Amphomycin] (Lauroyl-[X2]D[ξAbu(βξ-NH2)][Pip][ξAsp(βξ-Me)]DGDG[ξAbu(3ξ-NH2)]VP; lactam 3-C; configuration not given here)	6.5	50 to 200	4.55	–	0.5	–
CCCCCCCCCCCC(=O)Nc1ccc(CC(=O)NC(CC(=O)O)C(=O)NC2C(=O)N3CCCCC3C(=O)NC(C(C)C(=O)O)C(=O)NC(CC(=O)O)C(=O)NCC(=O)NC(CC(=O)O)C(=O)NCC(=O)NC(C(C)N)C(=O)NC(C(C)C)C(=O)N3CCCC3C(=O)NC2C)cc1 (stereo not drawn) [Compound 119, C12-(p-Apa)-Amphomycin] (Lauroyl-[X1]D[ξAbu(βξ-NH2)][Pip][ξAsp(βξ-Me)]DGDG[ξAbu(3ξ-NH2)]VP; lactam 3-C; configuration not given here)	7.6	50 to 200	4.22	–	0.25	–
CCCCCCCCCCCCCCNC(=O)NC(CC(=O)O)C(=O)NC1C(=O)N2CCCCC2C(=O)NC(C(C)C(=O)O)C(=O)NC(CC(=O)O)C(=O)NCC(=O)NC(CC(=O)O)C(=O)NCC(=O)NC(C(C)NC(=O)CCN)C(=O)NC(C(C)C)C(=O)N2CCCC2C(=O)NC1C (stereo not drawn) [Compound 278, CH3—(CH2)13—NH—C(═O)-Amphomycin-9-(β-Ala)]	7.1	200 to 400	7.45	–	0.5	half-life [7]: 7.08 h; ED50 in Mice, E. faecalis (EFS0040) [6]: 5.3 mg/kg; MIC used for the PAE experiment [8]: 2 µg/mL; Post Antibiotic Effect (hours) 0.5 × MIC ([8]; exposure one hour at 0.5 × MIC, S. aureus log phase): 1.5 h; Post Antibiotic Effect (hours) 1 × MIC ([8]; exposure one hour at 1 × MIC): 2.6 h; Post Antibiotic Effect (hours) 2 × MIC ([8]; exposure one hour at 2 × MIC): 2.2 h; Post Antibiotic Effect (hours) 4 × MIC ([8]; exposure one hour at 4 × MIC): 3.2 h
CC1(C)S[C@@H]2[C@H](NC(=O)[C@H](N)c3ccccc3)C(=O)N2[C@H]1C(=O)O [ampicillin, reference compound]	–	–	–	–	–	EKill (log10 CFU/lung reduction versus count at initial treatment time) ([9]; 30 mg/kg i.v.): 1.8 log10 CFU/lung; log10 CFU/lung reduction (EMax, versus control at 24 hours) ([9]; highest dose level 30 mg/kg i.v.): 2.58 log10 CFU/lung; ED50 ([6]; Enterococcus faecalis, read-out: ED50 in Mice, E. faecalis (EFS0040)): 4.2 mg/kg
amphomycin [reference compound]	5.4	–	–	2.0	–	–
aspartocin [reference compound]	5.4	–	–	0.65	–	–
